Measured values reported in patent US20240287079A1, “6-AMINOPYRAZOLOPYRIMIDINE COMPOUND AND PHARMACEUTICAL USE THEREOF” (Japan Tobacco Inc., priority 2021, published 2024).

Molecular target: NLRP3 inflammasome (Homo sapiens (Human), UniProt Q96P20)
Test: Evaluation of NLRP3 inflammasome inhibitory activity (inhibition of IL-1β production in LPS/Nigericin-stimulated THP1-Null cells)
Format: cell-based
Conditions: IL-1β production in THP1-Null cells; for IC50: PMA, LPS 1 μg/mL, Nigericin 7.5 μmol/L, AlphaLISA; for inhibition at 2.4 µM: test compound 2.4 μM
Outline: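 THP1-Null cells primed with 1 μg/mL LPS, then treated with test compound; supernatant IL-1β quantified by AlphaLISA. Inhibition calculated with blank wells as 100% and control wells as 0%.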

Chain of NLRP3 inflammasome (Q96P20 whole entry): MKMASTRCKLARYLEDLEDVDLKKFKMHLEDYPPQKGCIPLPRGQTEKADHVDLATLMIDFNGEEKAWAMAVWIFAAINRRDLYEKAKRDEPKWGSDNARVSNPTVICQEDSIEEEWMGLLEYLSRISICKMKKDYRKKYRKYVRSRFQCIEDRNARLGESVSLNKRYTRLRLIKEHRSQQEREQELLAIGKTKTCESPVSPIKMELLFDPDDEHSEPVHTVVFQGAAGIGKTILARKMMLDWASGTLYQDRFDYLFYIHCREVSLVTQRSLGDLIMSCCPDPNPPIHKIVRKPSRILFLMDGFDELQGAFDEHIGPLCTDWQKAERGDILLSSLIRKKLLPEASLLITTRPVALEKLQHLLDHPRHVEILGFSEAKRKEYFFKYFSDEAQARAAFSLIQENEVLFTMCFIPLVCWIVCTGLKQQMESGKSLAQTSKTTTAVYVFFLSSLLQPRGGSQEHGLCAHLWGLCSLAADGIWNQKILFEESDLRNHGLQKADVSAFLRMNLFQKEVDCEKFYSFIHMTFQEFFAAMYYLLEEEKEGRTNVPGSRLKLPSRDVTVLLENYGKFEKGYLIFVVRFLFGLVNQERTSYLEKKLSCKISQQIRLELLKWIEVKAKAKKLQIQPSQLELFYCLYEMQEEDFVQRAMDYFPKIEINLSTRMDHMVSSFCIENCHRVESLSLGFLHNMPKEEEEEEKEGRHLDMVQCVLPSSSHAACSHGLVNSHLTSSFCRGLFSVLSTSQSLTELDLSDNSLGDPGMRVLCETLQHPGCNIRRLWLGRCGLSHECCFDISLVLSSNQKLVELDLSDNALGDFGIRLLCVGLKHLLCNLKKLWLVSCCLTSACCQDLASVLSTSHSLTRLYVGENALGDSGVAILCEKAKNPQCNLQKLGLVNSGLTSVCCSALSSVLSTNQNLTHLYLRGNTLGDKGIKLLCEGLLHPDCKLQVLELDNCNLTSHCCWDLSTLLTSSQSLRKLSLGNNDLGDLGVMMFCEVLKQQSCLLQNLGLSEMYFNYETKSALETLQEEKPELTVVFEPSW

| Structure (SMILES) | IC50 [µM] | further results |
| --- | --- | --- |
| Cc1cc(C(F)(F)F)cc(C)c1-n1cc2c(=O)[nH]c(N3C[C@H]4C[C@@H]3CO4)nc2n1 [Example 249] | 0.0033 | – |
| Cc1cc(C(F)(F)F)cc(C)c1-n1cc2c(=O)[nH]c(N3C[C@@H]4C[C@H]3CO4)nc2n1 [Example 250] | 0.0089 | – |
| Cc1cc(C(F)(F)F)cc(C)c1-n1cc2c(=O)[nH]c(N3CCOC[C@H]3C)nc2n1 [Example 251] | – | inhibition at 0.0024 µM (test compound 0.0024 μM): 65% |
| COc1cc(C)c(-n2cc3c(=O)[nH]c(N4CCOCC4)nc3n2)c(C)c1 [Example 253] | 0.024 | – |
| Cc1cc(Br)cc(F)c1-n1cc2c(=O)[nH]c(N3CCOCC3)nc2n1 [Example 254] | 0.014 | – |
| Cc1cc(C2CC2)cc(F)c1-n1cc2c(=O)[nH]c(N3CCOCC3)nc2n1 [Example 255] | 0.0062 | – |
| O=c1[nH]c(N2CCOCC2)nc2nn(-c3c(Cl)cc(C(F)(F)F)cc3N3CCOCC3)cc12 [Example 256] | – | inhibition at 2.4 µM: 40% |
| O=c1[nH]c(N2CCOCC2)nc2nn(-c3c(O)cc(C(F)(F)F)cc3Cl)cc12 [Example 257] | 0.069 | – |
| C[C@@H]1COCCN1c1nc2nn(-c3ccc(Br)cc3C(F)(F)F)cc2c(=O)[nH]1 [Example 258] | 0.023 | – |
| O=c1[nH]c(N2C[C@H]3C[C@@H]2CO3)nc2nn(-c3ccc(Br)cc3C(F)(F)F)cc12 [Example 259] | 0.023 | – |
| O=c1[nH]c(N2C[C@@H]3C[C@H]2CO3)nc2nn(-c3ccc(Br)cc3C(F)(F)F)cc12 [Example 260] | 0.017 | – |
| C[C@@H]1COCCN1c1nc2nn(-c3ccc(C4CC4)cc3C(F)(F)F)cc2c(=O)[nH]1 [Example 261] | 0.0055 | – |
| O=c1[nH]c(N2C[C@H]3C[C@@H]2CO3)nc2nn(-c3ccc(C4CC4)cc3C(F)(F)F)cc12 [Example 262] | 0.0098 | – |
| O=c1[nH]c(N2C[C@@H]3C[C@H]2CO3)nc2nn(-c3ccc(C4CC4)cc3C(F)(F)F)cc12 [Example 263] | 0.0086 | – |
| Cc1cc(-n2cc3c(=O)[nH]c(N4CCOCC4)nc3n2)c(C)cc1Cl [Example 265] | 0.35 | – |
| Cc1cc(Br)cc(C)c1-n1cc2c(=O)[nH]c(NCC(F)(F)F)nc2n1 [Example 266] | 0.014 | – |
| Cc1cc(Br)cc(C)c1-n1cc2c(=O)[nH]c(NCCF)nc2n1 [Example 267] | 0.0065 | – |
| COCc1cc(Br)ccc1-n1cc2c(=O)[nH]c(N3CCOCC3)nc2n1 [Example 268] | 0.034 | – |
| COc1ccc(CNc2cc(C(F)(F)F)cc(Cl)c2-n2cc3c(=O)[nH]c(N4CCOCC4)nc3n2)c(OC)c1 [Example 269] | – | inhibition at 2.4 µM: 25% |

| Structure (SMILES) | IC50 [µM] | further results |
| --- | --- | --- |
| Cc1cc(C2CCC2)cc(C)c1-n1cc2c(=O)[nH]c(N3CCOCC3)nc2n1 [Example 270] | 0.083 | – |
| Nc1cc(C(F)(F)F)cc(Cl)c1-n1cc2c(=O)[nH]c(N3CCOCC3)nc2n1 [Example 271] | 0.02 | – |
| O=c1[nH]c(N2CCOCC2)nc2nn(-c3c(F)cc(Br)cc3C(F)(F)F)cc12 [Example 272] | 0.022 | – |
| O=c1[nH]c(N2CCOCC2)nc2nn(-c3c(F)cc(C4CC4)cc3C(F)(F)F)cc12 [Example 273] | 0.013 | – |
| Cc1cc(Br)cc(C)c1-n1cc2c(=O)[nH]c(NC3COC3)nc2n1 [Example 274] | 0.58 | – |
| Cc1cc(C2CC2)cc(C)c1-n1cc2c(=O)[nH]c(N3CCOC[C@H]3C)nc2n1 [Example 275] | 0.0085 | – |
| Cc1cc(C2(C(F)(F)F)CC2)cc(C)c1-n1cc2c(=O)[nH]c(N3CCOCC3)nc2n1 [Example 276] | 0.22 | – |
| Cc1cc(C(F)(F)F)cc(C)c1-n1cc2c(=O)[nH]c(N3CC4CC(C3)O4)nc2n1 [Example 277] | 0.016 | – |
| Cc1cc(Br)cc(C)c1-n1cc2c(=O)[nH]c(N3CC4CCC(C3)O4)nc2n1 [Example 278] | 0.0079 | – |
| Cc1cc(Br)cc(C)c1-n1cc2c(=O)[nH]c(N3CCCC3)nc2n1 [Example 280] | 0.0042 | – |
| Cc1cc(C(F)(F)F)cc(C)c1-n1cc2c(=O)[nH]c(N3CCCC3)nc2n1 [Example 281] | 0.013 | – |
| Cc1c(Cl)ccc(-n2cc3c(=O)[nH]c(N4CCOCC4)nc3n2)c1C [Example 282] | 0.18 | – |
| Cc1cc(Br)cc(C)c1-n1cc2c(=O)[nH]c(N3CCC(F)(F)C3)nc2n1 [Example 283] | 0.0071 | – |
| Cc1cc(Br)cc(C)c1-n1cc2c(=O)[nH]c(N3CCC[C@H]3C)nc2n1 [Example 284] | 0.012 | – |
| Cc1cc(Br)cc(C)c1-n1cc2c(=O)[nH]c(N3CCC[C@@H]3C)nc2n1 [Example 285] | 0.027 | – |
| Cc1cc(C2CC2)cc(C)c1-n1cc2c(=O)[nH]c(N3CCCC3)nc2n1 [Example 286] | 0.0042 | – |
| Cc1cc(C2CC2)cc(Cl)c1-n1cc2c(=O)[nH]c(N3C[C@H]4C[C@@H]3CO4)nc2n1 [Example 287] | 0.0096 | – |
| Cc1cc(C2CC2)cc(Cl)c1-n1cc2c(=O)[nH]c(N3C[C@@H]4C[C@H]3CO4)nc2n1 [Example 288] | 0.01 | – |
| CC(=O)N1CCN(c2nc3nn(-c4c(C)cc(C5CC5)cc4C)cc3c(=O)[nH]2)[C@H](C)C1 [Example 290] | 0.01 | – |

| Structure (SMILES) | IC50 [µM] | further results |
| --- | --- | --- |
| Cc1cc(Br)cc(C)c1-n1cc2c(=O)[nH]c(N(C)C(C)C)nc2n1 [Example 291] | 0.016 | – |
| CCc1cc(C)c(-n2cc3c(=O)[nH]c(N4CCOCC4)nc3n2)c(C)c1 [Example 292] | 0.028 | – |
| C=C(c1cc(C)c(-n2cc3c(=O)[nH]c(N4CCOCC4)nc3n2)c(C)c1)C(F)(F)F [Example 293] | 0.29 | – |
| Cc1cc(C(F)(F)F)cc(C)c1-n1cc2c(=O)[nH]c(N3CC4CCC(C3)O4)nc2n1 [Example 295] | 0.02 | – |
| Cc1cc(Br)cc(Cl)c1-n1cc2c(=O)[nH]c(N3CC4CC(C3)O4)nc2n1 [Example 296] | 0.014 | – |
| Cc1cc(C2CC2)cc(Cl)c1-n1cc2c(=O)[nH]c(N3CC4CC(C3)O4)nc2n1 [Example 297] | 0.0099 | – |
| Cc1cc(OC(F)F)cc(C)c1-n1cc2c(=O)[nH]c(N3CCOCC3)nc2n1 [Example 298, 2-(4-(difluoromethoxy)-2,6-dimethylphenyl)-6-morpholino-2,5-dihydro-4H-pyrazolo[3,4-d]pyrimidin-4-one] | 0.027 | – |
| Cc1cc(C2CC2)cc(F)c1-n1cc2c(=O)[nH]c(N3C[C@H]4C[C@@H]3CO4)nc2n1 [Example 299] | 0.017 | – |
| Cc1cc(C2CC2)cc(F)c1-n1cc2c(=O)[nH]c(N3C[C@@H]4C[C@H]3CO4)nc2n1 [Example 300] | 0.015 | – |
| Cc1cc(C(C)C)cc(C)c1-n1cc2c(=O)[nH]c(N3CCOCC3)nc2n1 [Example 301] | 0.021 | – |
| CCOc1cc(Br)ccc1-n1cc2c(=O)[nH]c(N3CCOCC3)nc2n1 [Example 302] | 0.13 | – |
| CC(C)Oc1cc(Br)ccc1-n1cc2c(=O)[nH]c(N3CCOCC3)nc2n1 [Example 303] | 0.088 | – |
| COc1cc(Br)ccc1-n1cc2c(=O)[nH]c(N3CCOCC3)nc2n1 [Example 304] | 0.065 | – |
| O=c1[nH]c(N2CCOCC2)nc2nn(-c3ccc(Br)cc3OC3CCC3)cc12 [Example 305] | 0.048 | – |
| CC(C)(C)c1ccc(-n2cc3c(=O)[nH]c(N4CCOCC4)nc3n2)c(Br)c1 [Example 306] | 0.085 | – |
| COc1ccc(-n2cc3c(=O)[nH]c(N4CCCC4)nc3n2)c(Br)c1 [Example 307] | 0.011 | – |
| Cc1cc(Br)cc(C)c1-n1cc2c(=O)[nH]c(N3CCCO3)nc2n1 [Example 308] | 0.17 | – |
| O=c1[nH]c(N2C[C@H]3C[C@@H]2CO3)nc2nn(-c3ccc(Br)cc3C(O)C3CC3)cc12 (some centres unmarked) [Example 309] | 0.11 | – |
